{"source": "patent US9518060B2", "about": "“Substituted pyrrolo[3,4-c]pyrazoles as PKC kinase inhibitors” (PFIZER INC., priority 2007, dated 2016)"}
{"target": "Protein Kinase C beta 2 (PKCβII) (Homo sapiens (Human), UniProt P05771)", "sequence (P05771 other isoform, or with tags, fused parts or gaps)": "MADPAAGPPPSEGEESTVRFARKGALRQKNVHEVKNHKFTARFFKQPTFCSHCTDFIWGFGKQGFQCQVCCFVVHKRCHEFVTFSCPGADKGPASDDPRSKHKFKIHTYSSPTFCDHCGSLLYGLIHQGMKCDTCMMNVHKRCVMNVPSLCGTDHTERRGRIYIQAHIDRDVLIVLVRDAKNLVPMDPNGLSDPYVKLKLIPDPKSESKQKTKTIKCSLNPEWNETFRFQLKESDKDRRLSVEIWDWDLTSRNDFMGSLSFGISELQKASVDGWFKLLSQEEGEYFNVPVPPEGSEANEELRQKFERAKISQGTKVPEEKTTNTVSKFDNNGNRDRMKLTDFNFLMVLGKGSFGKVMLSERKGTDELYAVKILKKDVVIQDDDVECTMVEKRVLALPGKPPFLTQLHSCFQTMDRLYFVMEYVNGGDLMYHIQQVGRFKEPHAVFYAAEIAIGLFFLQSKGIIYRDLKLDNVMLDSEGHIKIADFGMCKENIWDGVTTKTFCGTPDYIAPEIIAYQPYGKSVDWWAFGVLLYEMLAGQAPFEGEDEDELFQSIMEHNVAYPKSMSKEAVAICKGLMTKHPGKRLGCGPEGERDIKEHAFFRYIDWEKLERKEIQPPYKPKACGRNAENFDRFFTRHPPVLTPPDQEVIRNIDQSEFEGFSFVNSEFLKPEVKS", "test": "PKCβII coupled spectrophotometric kinase assay (PK/LDH, NADH absorbance at 340 nm)", "assay_type": "biochemical", "details": "apparent Ki, ATP competitive inhibition model (Morrison equation); 0.1 mM ATP, 5 nM PKC, 30° C.; read-out: Ki app", "procedure": "Protein Kinase C beta 2 (PKCβII) catalyzes the production of ADP from ATP that accompanies the phosphoryl transfer to the PKC Pseudosubstrate peptide (A→S, RFARKGSLRQKNV). This transfer is coupled to the oxidation of β-NADH through the activities of Pyruvate Kinase (PK) and Lactate Dehydrogenase (LDH). β-NADH conversion to NAD+ is monitored by the decrease in absorbance at 340 nm (e=6.22 cm^−1 mM^−1) using a Molecular Devices SPECTRA max PLUS spectrophotometer.\nA typical assay was carried out on a 96-well, clear microtiter plate in a Molecular Devices spectrophotometer for 20 minutes at 30° C. in 0.1 mL of assay buffer containing 50 mM HEPES, pH 7.4, 5 nM PKC, 23 units of pyruvate kinase, 33 units of lactate dehydrogenase, 0.15 mM peptide, 0.1 mM ATP, 1 mM DTT, 4 mM PEP, 8 mM MgCl2, 0.3 mM NADH, 60 mM CaCl2, 10 mg/mL PS, 50 ng/mL PMA, 7.5% DMSO and from about 10,000 nM to 0.169 nM compound inhibitor. Stock solutions of 3-sn-phosphatidyl-L-serine (PS) and phorbol-12-myristate-13-acetate (PMA) were sonicated for 30 seconds just prior to addition to assay buffer and assays were initiated by the addition of 100 μM ATP.\nSteady-state kinetic parameters for the bi-bi kinase reaction were determined at saturating phospho-acceptor peptide substrate concentration (0.15 mM) by fitting initial velocity data to the Michaelis-Menten equation, v=Vmax[S]/(KM+[S]) where v is the measured initial velocity, Vmax is the maximal enzyme velocity, [S] is the ATP substrate concentration, and KM is the Michealis constant for ATP. Enzyme turnover values (kcat) were calculated according to […], where [E] is the total enzyme concentration. Enzyme inhibition constants (apparent Ki values) were determined by fitting initial velocities at variable inhibitor concentrations to a model for ATP competitive inhibition based on the Morrison equation). Morrison, J. F., Biochim. Biophys Acta 185: 269-286 (1969).", "units": {"Ki": "nM"}}
{"smiles": "Cc1ccc(F)c(Nc2n[nH]c3c2CN(C(=O)N2C[C@@H]4CCCN4C[C@@H]2C)C3(C)C)n1", "note": "[Example J5, N-(3-fluoro-6-methylpyridin-2-yl)-6,6-dimethyl-5-{[(3S,8aS)-3-methylhexahydropyrrolo[1,2-a]pyrazin-2(1H)-yl]carbonyl}-1,4,5,6-tetrahydropyrrolo[3,4-c]pyrazol-3-amine]", "Ki": 6.43}
{"smiles": "CC(C)c1ncc(F)c(Nc2n[nH]c3c2CN(C(=O)N2CC(C)(C)N(C)C[C@@H]2C)C3(C)C)n1", "note": "[Example I2, N-(5-fluoro-2-isopropylpyrimidin-4-yl)-6,6-dimethyl-5-{[(2S)-2,4,5,5-tetramethylpiperazin-1-yl]carbonyl}-1,4,5,6-tetrahydropyrrolo[3,4-c]pyrazol-3-amine]", "Ki": 3.67}
{"smiles": "CCOc1nccc(Nc2n[nH]c3c2CN(C(=O)N2C[C@@H](C)N(C)C[C@@H]2C)C3(C)C)n1", "note": "[Example E3, N-(2-ethoxypyrimidin-4-yl)-6,6-dimethyl-5-{[(2S,5R)-2,4,5-trimethylpiperazin-1-yl]carbonyl}-1,4,5,6-tetrahydropyrrolo[3,4-c]pyrazol-3-amine]", "Ki": 13.1}
{"smiles": "C[C@H]1CN(C)C(C)(C)CN1C(=O)N1Cc2c(Nc3nc(OCC(F)(F)F)ncc3F)n[nH]c2C1(C)C", "note": "[Example K8, N-[5-fluoro-2-(2,2,2-trifluoroethoxy)pyrimidin-4-yl]-6,6-dimethyl-5-{[(2S)-2,4,5,5-tetramethylpiperazin-1-yl]carbonyl}-1,4,5,6-tetrahydropyrrolo[3,4-c]pyrazol-3-amine]", "Ki": 0.181}
{"smiles": "CC(C)Nc1ncc(F)c(Nc2n[nH]c3c2CN(C(=O)N2CC(C)(C)N(C)C[C@@H]2C)C3(C)C)n1", "note": "[Example A7, N^4-(6,6-dimethyl-5-{[(2S)-2,4,5,5-tetramethylpiperazin-1-yl]carbonyl}-1,4,5,6-tetrahydropyrrolo[3,4-c]pyrazol-3-yl)-5-fluoro-N^2-isopropylpyrimidine-2,4-diamine]", "Ki": 3.81}
{"smiles": "CCOc1ncc(F)c(Nc2n[nH]c3c2CN(C(=O)C2(F)CCN(C)CC2)C3(C)C)n1", "note": "[Example L1, N-(2-ethoxy-5-fluoropyrimidin-4-yl)-5-[(4-fluoro-1-methylpiperidin-4-yl)carbonyl]-6,6-dimethyl-1,4,5,6-tetrahydropyrrolo[3,4-c]pyrazol-3-amine]", "Ki": 16.8}
{"smiles": "Cc1ncc(F)c(Nc2n[nH]c3c2CN(C(=O)N2CC(C)(C)N(C)C[C@@H]2C)C3(C)C)n1", "note": "[Example H3, N-(5-fluoro-2-methylpyrimidin-4-yl)-6,6-dimethyl-5-{[(2S)-2,4,5,5-tetramethylpiperazin-1-yl]carbonyl}-1,4,5,6-tetrahydropyrrolo[3,4-c]pyrazol-3-amine]", "Ki": 7.21}
{"smiles": "Cc1cc(C)nc(Nc2n[nH]c3c2CN(C(=O)N2C[C@@H](C)N(CC4CCOCC4)C[C@@H]2C)C3(C)C)n1", "note": "[Example J16, N-(4,6-dimethylpyrimidin-2-yl)-5-{[(2S,5R)-2,5-dimethyl-4-(tetrahydro-2H-pyran-4-ylmethyl)piperazin-1-yl]carbonyl}-6,6-dimethyl-1,4,5,6-tetrahydropyrrolo[3,4-c]pyrazol-3-amine]", "Ki": 11.1}
{"smiles": "Cc1ncc(F)c(Nc2n[nH]c3c2CN(C(=O)N2C[C@@H]4CCCN4C[C@@H]2C)C3(C)C)n1", "note": "[Example H1, N-(5-fluoro-2-methylpyrimidin-4-yl)-6,6-dimethyl-5-{[(3S,8aS)-3-methylhexahydropyrrolo[1,2-a]pyrazin-2(1H)-yl]carbonyl}-1,4,5,6-tetrahydropyrrolo[3,4-c]pyrazol-3-amine]", "Ki": 39.8}
{"smiles": "C[C@H]1CN(C)C(C)(C)CN1C(=O)N1Cc2c(Nc3nc(NC4CC4)ncc3F)n[nH]c2C1(C)C", "note": "[Example A5, N2-cyclopropyl-N4-(6,6-dimethyl-5-{[(2S)-2,4,5,5-tetramethylpiperazin-1-yl]carbonyl}-1,4,5,6-tetrahydropyrrolo[3,4-c]pyrazol-3-yl)-5-fluoropyrimidine-2,4-diamine]", "Ki": 3.95}
